We go through 5 compounds from US20220324835A1 (Nurix Therapeutics, Inc., priority 2018, published 2022).

The test system of assay [1] is T-cell. The assay is described as follows: CD25 cell surface staining on T-cells stimulated with anti-CD3 antibody alone (Biological Example 2). It counts as cell-based. Particulars: primary human total T-cells, baseline = anti-CD3/anti-CD28 stimulated cells without inhibitor, read-out: CD25 staining, Anti-CD3 stimulation, fold change over baseline; for fold induction at 1 µM: 1 μM compound; for fold induction at 8 µM: 8 μM compound.

Assay [2] deals with T-cell. The assay is described as follows: CD25 cell surface staining on T-cells co-stimulated with anti-CD3 and anti-CD28 antibody (Biological Example 2). To be noted: Homo sapiens, T-cell, primary human total T-cells, baseline = anti-CD3/anti-CD28 stimulated cells without inhibitor, read-out: CD25 staining, Anti-CD3/Anti-CD28 stimulation, fold change over baseline; for fold induction at 0.3 µM: 0.3 μM compound; for fold induction at 1 µM: 1 μM compound; for fold induction at 4 µM: 4 μM compound. It counts as cell-based, human. In a few lines: (§1)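 T-cells were stimulated with anti-CD3 antibody alone or with anti-CD28 antibody, in the presence or absence of Cbl-b inhibitor. IL-2 secretion or CD25 surface staining was measured, and values expressed as fold over the uninhibited baseline […].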

The target of another assay is Cbl-b (residues 36-427) (Homo sapiens, UniProt Q13191). The assay is described as follows: Cbl-b binding assay (SPR, Biacore T200). Particulars: 20° C., 1:1 binding model. The procedure, abridged:
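Steps: capture protein on NeutrAvidin surface; inject compound dilutions (8 or 10 points from 100 or 50 μM) 50 s; allow 90-180 s dissociation; regenerate 20 s with 0.3 M NaCl. Runs at 20° C in HEPES pH 7.5/100 mM NaCl/2% DMSO; 1:1 fitting.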
In general terms: SPR reads the build-up and loss of mass on a sensor chip optically.

Assay [3] concerns T-cell. Nature of the assay: IL-2 secretion from T-cells co-stimulated with anti-CD3 and anti-CD28 antibody (Biological Example 2). In kind it is cell-based, human. Particulars: Homo sapiens, T-cell, primary human total T-cells, baseline = anti-CD3/anti-CD28 stimulated cells without inhibitor, read-out: IL-2 secretion, Anti-CD3/Anti-CD28 stimulation, fold change over baseline; for fold induction at 0.3 µM: 0.3 μM compound; for fold induction at 1 µM: 1 μM compound; for fold induction at 4 µM: 4 μM compound. The procedure, abridged:
as §1

Assay [4] has as its target T1, Cbl-b (Homo sapiens, UniProt Q13191). Nature of the assay: Cbl-b activity assay (Cbl-b inhibition assay), TR-FRET of Cbl-b interaction with UbcH5B-Ub. It counts as biochemical. Particulars: assay buffer with 100 mM NaCl, 60 nM Src kinase; read-out: Cbl-b activity IC50. In a few lines: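 UbcH5B (C85K) conjugated to N-terminally Bodipy-Fluorescein-labeled ubiquitin served as the fluorescent partner. After compound preincubation, Src kinase (60 nM) with 1 mM ATP and 5 mM MgCl2 (final) was added for 1.5 h, followed by a further 1 h incubation. Some values were obtained with 50 mM NaCl and 30 nM Src.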
(In general: TR-FRET usually uses a lanthanide donor and a delayed reading to cut background.)

Assay [5] has as its system T-cell. Nature of the assay: IL-2 secretion from T-cells stimulated with anti-CD3 antibody alone (Biological Example 2). It counts as cell-based. Particulars: primary human total T-cells, read-out: IL-2 secretion, Anti-CD3 stimulation, fold change over baseline; for fold induction at 1 µM: 1 μM compound; for fold induction at 8 µM: 8 μM compound.
In assay [6] the target is T1, Cbl-b. Nature of the assay: Cbl-b inhibition assay (Cbl-b activity assay, FRET, Biological Example 1; 100 mM NaCl, 60 nM Src kinase). It counts as biochemical. To be noted: upper bound stated in text lists; read-out: IC50 values in the Cbl-b inhibition assay of Biological Example 1. In a few lines: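 Steps: Src kinase phosphorylates N-terminal biotinylated Avi-tagged Cbl-b; phosphorylated Cbl-b binds Bodipy-fluorescein ubiquitin-loaded UbcH5B; streptavidin-terbium on Cbl-b sits close to the fluorescein label, producing FRET. Inhibitors block UbcH5B-Ub binding.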

As usually defined, the Kd is the equilibrium constant for the complex coming apart. High values mean lower affinity, low ones higher affinity. A word on the IC50: it is the concentration at which inhibition is half-maximal.

T1 sequence (Q13191 36-427): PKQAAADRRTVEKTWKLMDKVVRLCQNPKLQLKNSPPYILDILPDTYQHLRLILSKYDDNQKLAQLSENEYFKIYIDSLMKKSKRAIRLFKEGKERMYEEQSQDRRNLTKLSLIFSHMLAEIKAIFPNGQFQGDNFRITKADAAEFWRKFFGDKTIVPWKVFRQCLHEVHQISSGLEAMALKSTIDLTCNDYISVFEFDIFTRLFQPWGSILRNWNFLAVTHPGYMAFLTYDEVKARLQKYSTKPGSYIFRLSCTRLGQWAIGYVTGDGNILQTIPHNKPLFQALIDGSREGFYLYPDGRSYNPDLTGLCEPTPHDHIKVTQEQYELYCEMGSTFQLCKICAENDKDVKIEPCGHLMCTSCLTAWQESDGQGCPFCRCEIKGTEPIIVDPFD
Cbl-b (residues 36-427), sequence (Q13191 36-427): as above

With `C[C@H](O)CNc1cc([C@H](C)Cc2nncn2C)cc(N2Cc3c(cccc3C(F)(F)F)C2=O)n1` [Compound 364, 2-(6-((S)-2-hydroxypropylamino)-4-((R)-1-(4-methyl-4H-1,2,4-triazol-3-yl)propan-2-yl)pyridin-2-yl)-4-(trifluoromethyl)isoindolin-1-one], in the assay on T-cell [1], the fold induction at 1 µM is 0.601 to 0.8 and the fold induction at 8 µM was 0.601 to 0.8. Moreover, in the assay with T-cell [2], the fold induction at 0.3 µM lay in the range of 1.01 to 1.3, the fold induction at 1 µM was 1.01 to 1.3 and the fold induction at 4 µM fell in the range of 1.01 to 1.3. The compound also returned a Kd on Cbl-b (residues 36-427) of 1 to 3 µM. In addition, in the assay on T-cell [3], the fold induction at 0.3 µM was in the range of 1.01 to 2.5, the fold induction at 1 µM lay in the range of 1.01 to 2.5 and the fold induction at 4 µM is 1.01 to 2.5. Further, the 50% inhibitory concentration (IC50) at Cbl-b [4] lay within 0.301 to 1 µM. In addition, in the assay on T-cell [5], the fold induction at 1 µM is 0.051 to 0.1 and the fold induction at 8 µM lay within 0.101 to 0.15.

Take `Cn1cnnc1[C@H](F)[C@](C)(F)c1cccc(N2Cc3c(cc(C4CC4)cc3C(F)(F)F)C2=O)c1` [Compound 481a, 6-cyclopropyl-2-[3-[(1S,2R)-1,2-difluoro-1-(4-methyl-4H-1,2,4-triazol-3-yl)propan-2-yl]phenyl]-4-(trifluoromethyl)-2,3-dihydro-1H-isoindol-1-one]: the fold induction at 1 µM in the assay with T-cell [1] lay within 0.801 to 1; in the assay on T-cell [2] it was 1.01 to 1.3; in the assay with T-cell [3], 1.01 to 2.5; in the assay with T-cell [5], 0.051 to 0.1. For the same compound, the fold induction at 8 µM in the assay with T-cell [1] is greater than 1; with T-cell [5], 0.101 to 0.15. The fold induction at 0.3 µM is 1.01 to 1.3 with T-cell [2] and less than 1 in the assay with T-cell [3]. The fold induction at 4 µM in the assay on T-cell [2] is 1.01 to 1.3; in the assay with T-cell [3], 2.51 to 5. For the same compound, the dissociation constant Kd at Cbl-b (residues 36-427) lay in the range of 0.1 to 0.3 µM. Moreover, at Cbl-b [4], the IC50 lay within 0.1 to 0.3 µM.

Regarding `CN(c1cc2c(c(C(F)(F)F)c1)CN(c1cccc([C@@](C)(F)C(F)(F)c3nncn3C)c1)C2=O)[C@H]1CNC[C@H]1F` [Example 549, 6-(((3S,4R)-4-fluoropyrrolidin-3-yl)(methyl)amino)-2-(3-((R)-1,1,2-trifluoro-1-(4-methyl-4H-1,2,4-triazol-3-yl)propan-2-yl)phenyl)-4-(trifluoromethyl)iso-indolin-1-one], the fold induction at 1 µM with T-cell [1] lay within 0.801 to 1; in the assay with T-cell [2], 1.31 to 1.5; with T-cell [3], 2.51 to 5; in the assay with T-cell [5], 0.151 to 0.2. For the same compound, the fold induction at 0.3 µM in the assay on T-cell [2] lay in the range of 1.01 to 1.3; with T-cell [3], 1.01 to 2.5. Moreover, the results for the IC50 at Cbl-b [6] and at Cbl-b [4] were no more than 0.3 µM and 0.1 to 0.3 µM, respectively.

As to `C[C@@H](c1cc2c(c(C(F)(F)F)c1)CN(c1cccc(C3(Cc4nncn4C)COC3)c1)C2=O)N1CCC2(CC1)CC2` [Example 558a, (S)-6-(1-(6-azaspiro[2.5]octan-6-yl)ethyl)-2-(3-(3-((4-methyl-4H-1,2,4-triazol-3-yl)methyl)oxetan-3-yl)phenyl)-4-(trifluoromethyl)isoindolin-1-one], the fold induction at 1 µM in the assay on T-cell [1] is greater than 1; in the assay on T-cell [2], 1.01 to 1.3; with T-cell [3] it was greater than 7.5; with T-cell [5], greater than 0.201. In addition, the fold induction at 0.3 µM in the assay on T-cell [2] is 1.01 to 1.3; in the assay with T-cell [3], greater than 7.5. For the same compound, the half-maximal inhibitory concentration (IC50) on Cbl-b [6] was no more than 0.1 µM; at Cbl-b [4] it was less than 0.1 µM.

For the compound `C[C@H](c1cc2c(c(C(F)(F)F)c1)CN(c1cccc(C3(Cc4nncn4C)COC3)c1)C2=O)N1CCC2(CC1)CC2` [Example 558b, (R)-6-(1-(6-azaspiro[2.5]octan-6-yl)ethyl)-2-(3-(3-((4-methyl-4H-1,2,4-triazol-3-yl)methyl)oxetan-3-yl)phenyl)-4-(trifluoromethyl)isoindolin-1-one], the fold induction at 1 µM with T-cell [1] was greater than 1; in the assay on T-cell [2] it was 1.01 to 1.3; in the assay with T-cell [3], greater than 7.5; in the assay on T-cell [5] it was greater than 0.201. Moreover, the fold induction at 0.3 µM with T-cell [2] is 1.01 to 1.3; with T-cell [3], greater than 7.5. Moreover, the 50% inhibitory concentration (IC50) was no more than 0.1 µM at Cbl-b [6] and less than 0.1 µM on Cbl-b [4].
